Question: Which results are given for CSCC1CN(/N=C/c2ccc([N+](=O)[O-])o2)C(=O)O1 (configuration not stated)?
Answer: solubility (mole fraction) (in DMF, 293.15 K): 0.012; solubility (mole fraction) (in DMF, 298.15 K): 0.015; solubility (mole fraction) (in DMF, 303.15 K): 0.0186; solubility (mole fraction) (in DMF, 308.15 K): 0.0229; solubility (mole fraction) (in DMF, 313.15 K): 0.0279; solubility (mole fraction) (in DMF, 318.15 K): 0.0338; solubility (mole fraction) (in DMF, 323.15 K): 0.0405; solubility (mole fraction) (in DMF, 328.15 K): 0.0483; solubility (mole fraction) (in DMF, 333.15 K): 0.0571; solubility (mole fraction) (in DMSO, 293.15 K): 0.0172; solubility (mole fraction) (in DMSO, 298.15 K): 0.021; solubility (mole fraction) (in DMSO, 303.15 K): 0.0255; solubility (mole fraction) (in DMSO, 308.15 K): 0.0307; solubility (mole fraction) (in DMSO, 313.15 K): 0.0367; solubility (mole fraction) (in DMSO, 318.15 K): 0.0435; solubility (mole fraction) (in DMSO, 323.15 K): 0.0511; solubility (mole fraction) (in DMSO, 328.15 K): 0.0596; solubility (mole fraction) (in DMSO, 333.15 K): 0.069; solubility (mole fraction) (in THF, 293.15 K): 0.000618; solubility (mole fraction) (in THF, 298.15 K): 0.000801; solubility (mole fraction) (in THF, 303.15 K): 0.00103; solubility (mole fraction) (in THF, 308.15 K): 0.00131; solubility (mole fraction) (in THF, 313.15 K): 0.00166; solubility (mole fraction) (in THF, 318.15 K): 0.00209; solubility (mole fraction) (in THF, 323.15 K): 0.0026; solubility (mole fraction) (in THF, 328.15 K): 0.00322; solubility (mole fraction) (in THF, 333.15 K): 0.00397; solubility (mole fraction) (in acetic acid, 293.15 K): 0.000206; solubility (mole fraction) (in acetic acid, 298.15 K): 0.000275; solubility (mole fraction) (in acetic acid, 303.15 K): 0.000364; solubility (mole fraction) (in acetic acid, 308.15 K): 0.000479; solubility (mole fraction) (in acetic acid, 313.15 K): 0.000624; solubility (mole fraction) (in acetic acid, 318.15 K): 0.000808; solubility (mole fraction) (in acetic acid, 323.15 K): 0.00104; solubility (mole fraction) (in acetic acid, 328.15 K): 0.00133; solubility (mole fraction) (in acetic acid, 333.15 K): 0.00168; solubility (mole fraction) (in acetone, 293.15 K): 0.00109; solubility (mole fraction) (in acetone, 298.15 K): 0.0014; solubility (mole fraction) (in acetone, 303.15 K): 0.00178; solubility (mole fraction) (in acetone, 308.15 K): 0.00225; solubility (mole fraction) (in acetone, 313.15 K): 0.00281; solubility (mole fraction) (in acetone, 318.15 K): 0.0035; solubility (mole fraction) (in acetone, 323.15 K): 0.00432; solubility (mole fraction) (in acetone, 328.15 K): 0.0053; solubility (mole fraction) (in acetonitrile, 293.15 K): 0.00235; solubility (mole fraction) (in acetonitrile, 298.15 K): 0.00296; solubility (mole fraction) (in acetonitrile, 303.15 K): 0.00369; solubility (mole fraction) (in acetonitrile, 308.15 K): 0.00457; solubility (mole fraction) (in acetonitrile, 313.15 K): 0.00562; solubility (mole fraction) (in acetonitrile, 318.15 K): 0.00687; solubility (mole fraction) (in acetonitrile, 323.15 K): 0.00835; solubility (mole fraction) (in acetonitrile, 328.15 K): 0.0101; solubility (mole fraction) (in acetonitrile, 333.15 K): 0.0121; solubility (mole fraction) (in dichloromethane, 293.15 K): 0.00151; solubility (mole fraction) (in dichloromethane, 298.15 K): 0.00192; solubility (mole fraction) (in dichloromethane, 303.15 K): 0.00242; solubility (mole fraction) (in dichloromethane, 308.15 K): 0.00303; solubility (mole fraction) (in ethanol, 293.15 K): 1.98e-05; solubility (mole fraction) (in ethanol, 298.15 K): 2.7e-05; solubility (mole fraction) (in ethanol, 303.15 K): 3.65e-05; solubility (mole fraction) (in ethanol, 308.15 K): 4.89e-05; solubility (mole fraction) (in ethanol, 313.15 K): 6.49e-05; solubility (mole fraction) (in ethanol, 318.15 K): 8.54e-05; solubility (mole fraction) (in ethanol, 323.15 K): 0.000111; solubility (mole fraction) (in ethanol, 328.15 K): 0.000144; solubility (mole fraction) (in ethanol, 333.15 K): 0.000185; solubility (mole fraction) (in ethyl acetate, 293.15 K): 0.000224; solubility (mole fraction) (in ethyl acetate, 298.15 K): 0.000297; solubility (mole fraction) (in ethyl acetate, 303.15 K): 0.000389; solubility (mole fraction) (in ethyl acetate, 308.15 K): 0.000505; solubility (mole fraction) (in ethyl acetate, 313.15 K): 0.000651; solubility (mole fraction) (in ethyl acetate, 318.15 K): 0.000832; solubility (mole fraction) (in ethyl acetate, 323.15 K): 0.00106; solubility (mole fraction) (in ethyl acetate, 328.15 K): 0.00133; solubility (mole fraction) (in ethyl acetate, 333.15 K): 0.00167; solubility (mole fraction) (in isopropanol, 293.15 K): 1.45e-05; solubility (mole fraction) (in isopropanol, 298.15 K): 2e-05; solubility (mole fraction) (in isopropanol, 303.15 K): 2.73e-05; solubility (mole fraction) (in isopropanol, 308.15 K): 3.69e-05; solubility (mole fraction) (in isopropanol, 313.15 K): 4.94e-05; solubility (mole fraction) (in isopropanol, 318.15 K): 6.56e-05; solubility (mole fraction) (in isopropanol, 323.15 K): 8.63e-05; solubility (mole fraction) (in isopropanol, 328.15 K): 0.000113; solubility (mole fraction) (in isopropanol, 333.15 K): 0.000146; solubility (mole fraction) (in methanol, 293.15 K): 3.84e-05; solubility (mole fraction) (in methanol, 298.15 K): 5.31e-05; solubility (mole fraction) (in methanol, 303.15 K): 7.26e-05; solubility (mole fraction) (in methanol, 308.15 K): 9.85e-05; solubility (mole fraction) (in methanol, 313.15 K): 0.000132; solubility (mole fraction) (in methanol, 318.15 K): 0.000177; solubility (mole fraction) (in methanol, 323.15 K): 0.000234; solubility (mole fraction) (in methanol, 328.15 K): 0.000308; solubility (mole fraction) (in methanol, 333.15 K): 0.000403; solubility (mole fraction) (in water, 293.15 K): 1.53e-05; solubility (mole fraction) (in water, 298.15 K): 2.06e-05; solubility (mole fraction) (in water, 303.15 K): 2.75e-05; solubility (mole fraction) (in water, 308.15 K): 3.63e-05; solubility (mole fraction) (in water, 313.15 K): 4.74e-05; solubility (mole fraction) (in water, 318.15 K): 6.16e-05; solubility (mole fraction) (in water, 323.15 K): 7.93e-05; solubility (mole fraction) (in water, 328.15 K): 0.000101; solubility (mole fraction) (in water, 333.15 K): 0.000129

Source: BigSolDB 2.1
